Assay results: ChEMBL document CHEMBL1146741, “Cycloalkyl[b][1,4]benzodiazepinoindoles are agonists at the human 5-HT2C receptor” (Bioorg Med Chem Lett, 2004)

Columns and labels:
[1] = biological target: 5-hydroxytryptamine receptor 2B (Homo sapiens) (UniProt P41595); test: Binding affinity against 5-hydroxytryptamine 2B receptor
[2] = biological target: Sodium-dependent serotonin transporter (Rattus norvegicus) (UniProt P31652); test: Percent binding affinity against serotonin transporter; settings: concentration not given here
Sequence of Sodium-dependent serotonin transporter (Rattus norvegicus) (P31652 whole entry, looked up): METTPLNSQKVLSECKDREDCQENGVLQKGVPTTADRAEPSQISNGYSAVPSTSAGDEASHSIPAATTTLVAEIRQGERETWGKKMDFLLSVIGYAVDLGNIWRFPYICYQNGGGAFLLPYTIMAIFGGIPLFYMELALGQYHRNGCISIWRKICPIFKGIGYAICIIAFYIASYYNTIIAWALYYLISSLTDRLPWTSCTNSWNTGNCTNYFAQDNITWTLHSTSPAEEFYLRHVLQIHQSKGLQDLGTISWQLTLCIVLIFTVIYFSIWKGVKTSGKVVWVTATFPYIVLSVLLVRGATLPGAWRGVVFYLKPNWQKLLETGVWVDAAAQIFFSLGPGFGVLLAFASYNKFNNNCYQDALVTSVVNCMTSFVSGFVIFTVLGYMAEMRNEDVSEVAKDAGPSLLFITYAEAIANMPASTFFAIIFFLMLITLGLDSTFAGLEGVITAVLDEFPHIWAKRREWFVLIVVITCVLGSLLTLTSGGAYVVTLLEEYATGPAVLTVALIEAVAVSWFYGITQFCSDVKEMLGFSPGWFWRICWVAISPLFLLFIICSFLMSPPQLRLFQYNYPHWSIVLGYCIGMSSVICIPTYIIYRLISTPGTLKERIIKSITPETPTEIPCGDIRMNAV

Compound `c1cc2c3c(c1)c1c(n3CCNC2)CCCCCC1` has a Ki [1] greater than 5 µM and an inhibition [2] of 14%.
